Results published in paper PMC9161616, “A first-in-human phase 1/2 study of FGF401 and combination of FGF401 with spartalizumab in patients with hepatocellular carcinoma or biomarker-selected solid tumors” (Journal of Experimental & Clinical Cancer Research : CR, 2022).
Read-outs that look alike come from different tables or passages of the source.

Legend:
[1] = system: patients with HCC or other solid tumors positive for FGFR4 and KLB; experiment: Phase 1 dose escalation, DLTs, MTD/RP2D, FGF401 single agent; format: in vivo
Method: Phase 1: Escalation with overdose control (EWOC) principle based on the observed dose-limiting toxicities (DLTs) was employed while escalating dosage starting with 50 mg until the lowest of MTD and/or RP2D was met. Sample size to have reasonable operating characteristics was estimated to be a minimum of 21 evaluable patients.
To further assess the effect of food uptake on FGF401, additional patients were recruited upon observance of clinical activity to receive doses under fed condition, in parallel with the fasted dose escalation. The starting dose was estimated at 80 mg qd. Principles of dose escalation aligned with those under fasted condition.
The primary endpoint for the phase 1 parts was the incidence of DLTs evaluated. The probability of DLTs during the evaluation period was estimated for patients in the dose determining set (DDS) for each treatment arm, FGF401 single agent and FGF401 + spartalizumab combination, to estimate respective MTDs. DDS for the phase 1 single agent or combination comprised safety set patients who either experienced a DLT or had confirmation by both the sponsor and investigators that no DLT occurred during the first cycle, C1 (first 2 cycles: C1, C2) based on at least 66% of planned doses administered in C1 (C1 and C2) with a minimum of 21 (42) days of observation following the first dose. For phase 2, the primary efficacy endpoint to investigate the antitumor activity of FGF401 included time to tumor progression assessed in groups 1 and 2, and overall response rate (ORR) in group 3 based on local assessment per Response Evaluation Criteria in Solid Tumors (RECIST) v1.1.
For the single-agent phase 1 primary outcome, an extended Bayesian hierarchical logistical regression model (BHLRM) was applied to estimate the relationship between dose and stratum (fasted vs fed) specific probability of a patient experiencing a DLT. […]

phospho-FGFR4 = experiment: Preclinical in vivo phospho-FGFR4 inhibition; settings: equivalent of 52.1 nM
[2] = Plasma pharmacokinetics of FGF401 (noncompartmental) and food effect; format: in vivo, human
Method: Pharmacokinetic endpoints included plasma concentrations and PK parameters of FGF401 and spartalizumab. Pharmacokinetic parameters were determined with noncompartmental method(s) using Phoenix WinNonlin version 6.4 or above (Pharsight Corporation, Mountain View, Califormia, USA). Immunogenicity of spartalizumab was assessed through presence and/or concentration of anti-drug (spartalizumab) antibodies (ADA). Food effect on FGF401 exposure was evaluated through plasma concentration of FGF401 and relevant PK parameters when dosing under fed condition. Safety of the food effect was assessed through incidence and severity of AEs and serious AEs (SAEs), including changes in laboratory values, vital signs, and ECGs when dosing under fed condition. The PK analyses and summary statistics were based on pharmacokinetic analysis set. Individual as well as mean concentration-time profiles were constructed using concentration data for spartalizumab and FGF401. Descriptive statistics for PK parameters included mean, standard deviation, coefficient of variation (CV%) mean, geometric mean, median, minimum, and maximum, with only the latter 3 for time to reach maximum concentration (Tmax) and additional 90% CI for accumulation ratio (Racc). Zero concentrations were not included in the geometric mean calculations. Missing concentrations or PK parameter values were not imputed.

[3] = human, plasma, oral, 80 mg, Cycle 1 day 8, 80 mg Fasted, n=6, geometric mean (CV%)
[4] = human, plasma, oral, 80 mg, Cycle 1 day 8, 80 mg Fed, n=4, geometric mean (CV%)
[5] = human, plasma, oral, 150 mg, Cycle 1 day 8, 150 mg Fasted, n=6, geometric mean (CV%)
[6] = low fat meals, 80 mg and 120 mg

## COCCNc1cc(NC(=O)N2CCCc3cc(CN4CCN(C)CC4=O)c(C=O)nc32)ncc1C#N [FGF401, roblitinib]
[1]; human, in vivo, 21 days
  DLT: increase in blood bilirubin: 2 n
  DLT: increase in transaminases: 4 n
[1]; single agent, 50 to 150 mg
  MTD: not reached
phospho-FGFR4
  IC90 equivalent in human plasma: ~ 23 ng/mL
[2]; 50 to 150 mg, fasted and fasted-fed combined
  dose proportionality of exposures (AUC and Cmax): increased slightly under dose proportion
[2]; C1D8 and C2D1 versus C1D1
  Racc: around 1
[2]; Cycle 1 day 8, 50 mg Fasted, n=6, geometric mean (CV%)
  Racc: 0.929 (12.1)
[2]; Cycle 1 day 8, 80 mg Fasted, n=5, geometric mean (CV%)
  Racc: 0.97 (14.3)
[2]; Cycle 1 day 8, 80 mg Fed, n=4, geometric mean (CV%)
  Racc: 1.04 (18.6)
[2]; Cycle 1 day 8, 120 mg Fasted, n=24, geometric mean (CV%)
  Racc: 1.03 (26.2)
[2]; Cycle 1 day 8, 120 mg Fed, n=15, geometric mean (CV%)
  Racc: 0.95 (22.5)
[2]; Cycle 1 day 8, 150 mg Fasted, n=6, geometric mean (CV%)
  Racc: 0.982 (33.3)
[2]; dosed with low-fat meals, 80 mg and 120 mg
  food effect: no food effect
[2]; even at 50 mg qd
  mean trough concentration at steady state (24 h post-dose) versus phospho-FGFR4 IC90: approximately above this IC90
[2]; human, plasma, oral, 50 mg, Cycle 1 day 8, 50 mg Fasted, n=6, geometric mean (CV%)
  AUC(0-inf): 3650 ng·h/mL
[2]; human, plasma, oral, 50 mg, Cycle 1 day 8, 50 mg Fasted, n=6, geometric mean (CV%), read-out: T1/2 (converted)
  half-life: 6.57 h
[2]; human, plasma, oral, 50 mg, Cycle 1 day 8, 50 mg Fasted, n=7, geometric mean (CV%)
  Cmax: 663 ng/mL
[2]; human, plasma, oral, 50 mg, Cycle 1 day 8, 50 mg Fasted, n=7, geometric mean (CV%), read-out: AUC0-24h
  AUC(0-t): 3650 ng·h/mL
[2]; human, plasma, oral, 50 mg, Cycle 1 day 8, 50 mg Fasted, n=7, geometric mean (CV%), read-out: AUClast
  AUC(0-t): 3460 ng·h/mL
[2]; human, plasma, oral, 50 mg, Cycle 1 day 8, 50 mg Fasted, n=7, median [min, max], read-out: Tmax
  Tmax: 1 h
[2]; [3]
  AUC(0-inf): 5130 ng·h/mL
  Cmax: 838 ng/mL
[2]; human, plasma, oral, 80 mg, Cycle 1 day 8, 80 mg Fasted, n=6, geometric mean (CV%), read-out: AUC0-24h
  AUC(0-t): 4850 ng·h/mL
[2]; human, plasma, oral, 80 mg, Cycle 1 day 8, 80 mg Fasted, n=6, geometric mean (CV%), read-out: AUClast
  AUC(0-t): 4840 ng·h/mL
[2]; human, plasma, oral, 80 mg, Cycle 1 day 8, 80 mg Fasted, n=6, geometric mean (CV%), read-out: T1/2 (converted)
  half-life: 6.08 h
[2]; human, plasma, oral, 80 mg, Cycle 1 day 8, 80 mg Fasted, n=6, median [min, max], read-out: Tmax
  Tmax: 1.01 h
[2]; [4]
  AUC(0-inf): 5550 ng·h/mL
  Cmax: 704 ng/mL
[2]; human, plasma, oral, 80 mg, Cycle 1 day 8, 80 mg Fed, n=4, geometric mean (CV%), read-out: AUC0-24h
  AUC(0-t): 5290 ng·h/mL
[2]; human, plasma, oral, 80 mg, Cycle 1 day 8, 80 mg Fed, n=4, geometric mean (CV%), read-out: AUClast
  AUC(0-t): 5280 ng·h/mL
[2]; human, plasma, oral, 80 mg, Cycle 1 day 8, 80 mg Fed, n=4, geometric mean (CV%), read-out: T1/2 (converted)
  half-life: 5.58 h
[2]; human, plasma, oral, 80 mg, Cycle 1 day 8, 80 mg Fed, n=4, median [min, max], read-out: Tmax
  Tmax: 2.5 h
[2]; human, plasma, oral, 120 mg, Cycle 1 day 8, 120 mg Fasted, n=18, geometric mean (CV%)
  AUC(0-inf): 7590 ng·h/mL
[2]; human, plasma, oral, 120 mg, Cycle 1 day 8, 120 mg Fasted, n=18, geometric mean (CV%), read-out: T1/2 (converted)
  half-life: 5.43 h
[2]; human, plasma, oral, 120 mg, Cycle 1 day 8, 120 mg Fasted, n=24, geometric mean (CV%)
  Cmax: 1120 ng/mL
[2]; human, plasma, oral, 120 mg, Cycle 1 day 8, 120 mg Fasted, n=24, geometric mean (CV%), read-out: AUC0-24h
  AUC(0-t): 6970 ng·h/mL
[2]; human, plasma, oral, 120 mg, Cycle 1 day 8, 120 mg Fasted, n=24, geometric mean (CV%), read-out: AUClast
  AUC(0-t): 6480 ng·h/mL
[2]; human, plasma, oral, 120 mg, Cycle 1 day 8, 120 mg Fasted, n=24, median [min, max], read-out: Tmax
  Tmax: 1.04 h
[2]; human, plasma, oral, 120 mg, Cycle 1 day 8, 120 mg Fed, n=15, geometric mean (CV%)
  AUC(0-inf): 7980 ng·h/mL
[2]; human, plasma, oral, 120 mg, Cycle 1 day 8, 120 mg Fed, n=15, geometric mean (CV%), read-out: T1/2 (converted)
  half-life: 5.58 h
[2]; human, plasma, oral, 120 mg, Cycle 1 day 8, 120 mg Fed, n=16, geometric mean (CV%), read-out: AUC0-24h
  AUC(0-t): 7330 ng·h/mL
[2]; human, plasma, oral, 120 mg, Cycle 1 day 8, 120 mg Fed, n=18, geometric mean (CV%)
  Cmax: 1060 ng/mL
[2]; human, plasma, oral, 120 mg, Cycle 1 day 8, 120 mg Fed, n=18, geometric mean (CV%), read-out: AUClast
  AUC(0-t): 7640 ng·h/mL
[2]; human, plasma, oral, 120 mg, Cycle 1 day 8, 120 mg Fed, n=18, median [min, max], read-out: Tmax
  Tmax: 3.01 h
[2]; [5]
  AUC(0-inf): 7850 ng·h/mL
  Cmax: 1070 ng/mL
[2]; human, plasma, oral, 150 mg, Cycle 1 day 8, 150 mg Fasted, n=6, geometric mean (CV%), read-out: AUC0-24h
  AUC(0-t): 7510 ng·h/mL
[2]; human, plasma, oral, 150 mg, Cycle 1 day 8, 150 mg Fasted, n=6, geometric mean (CV%), read-out: AUClast
  AUC(0-t): 7550 ng·h/mL
[2]; human, plasma, oral, 150 mg, Cycle 1 day 8, 150 mg Fasted, n=6, geometric mean (CV%), read-out: T1/2 (converted)
  half-life: 5.24 h
[2]; human, plasma, oral, 150 mg, Cycle 1 day 8, 150 mg Fasted, n=6, median [min, max], read-out: Tmax
  Tmax: 2.42 h
[2]; human, plasma, oral, cycle 1 day 1, read-out: median Tmax across phase 1 treatment groups
  Tmax: 1 to 2.98 h
[2]; human, plasma, oral, cycle 1 day 8, read-out: median Tmax across phase 1 treatment groups
  Tmax: 1 to 3.01 h
[2]; human, plasma, oral, cycle 2 day 1, read-out: median Tmax across phase 1 treatment groups
  Tmax: 1.01 to 3.02 h
[2]; human, plasma, oral, over all treatments and during all periods, read-out: terminal half-life (T1/2)
  half-life: 4.91 to 6.57 h
[2]; human, plasma, oral, 120 mg fasted, C1D8, geometric mean, CV 38.7%, read-out: AUCtau at steady state
  AUC: 6970 ng·h/mL
[2]; in vivo
  overall interpatient variability of drug exposure: moderate
[2]; [6]
  food effect on Tmax: slightly delayed Tmax
  food effect on half-life: no effect on half-life
[2]; qd dosing
  drug accumulation following repeated dosing: no drug accumulation
